Measured values as given in patent publication US8524911B2, “3-arylamino pyridine derivatives” (Merck Serono SA, priority 2004, dated 2013).

Experiments:
[1] = system: human melanoma A375 cells; assay: Tumor cell proliferation assay (ATP Lite), A375; format: cell-based; conditions: A-375, 96 h, 4 days
Protocol: (§1) Assay 2: Tumor Cell Proliferation Assays (ATP Lite)
(§2) Murine colon C26, human melanoma A375 and MeI5 or human pancreatic MiaPaCa-2 cells were plated in 96 well Corning white plates (1500 cells/well for C26, and 2000 cells/well for A375, and MiaPaCa-2) and cultured overnight at 37° C. in 5% CO2. Inhibitors were serially diluted in 100% DMSO and subsequently added to cells to reach a final concentration of 0.25% DMSO. The cells were incubated for 4 days in the presence of test compounds in cell growth media (DMEM with 10% fetal bovine serum, 2 mM glutamine for C26, and MiaPaCa-2, and RPMI with 10% fetal bovine serum, 2 mM glutamine for A375). Cell proliferation was quantitated using the ATP lite cell proliferation kit (Packard). Columns 4-6 show the concentration of compounds required to induce 50% cell death (IC50 in μM) of […]. With “+” meaning 3 μM<IC50≦10 μM and “++” IC50≦3 μM and “n.d.” means not determined. Few compounds were also tested on human melanoma cell MeI5.

Murine colon C26 cells = assay: Tumor cell proliferation assay (ATP Lite), C26; format: cell-based; conditions: Mus musculus, 96 h, 4 days
Protocol: as §1, §2

human MEK1 = human MEK1 (Homo sapiens, UniProt Q02750); assay: MEK-1 Enzyme Assay (LANCE-HTRF); format: biochemical; conditions: 100 nM MEK1, 15 μM ATP, 300 nM ERK2, two hours; read-out: MEK inhibition
Protocol: Assay 1: MEK-1 Enzyme Assay (LANCE-HTRF)
The activity of the compounds of the present invitation may be determined by the following procedure; Inhibition of human MEK1 kinase activity was monitored with a homogenous, fluorescence based assay. The assay uses time resolved fluorescence resonance energy transfer to probe for phosphorylation of ERK1 by MEK1. The assay is carried out in low volume 96 well microtiterplates. […] After two hours, 5 nM Europium-anti-PY20 (Perkin Elmer) and 50 nM Anti-GST-Allophycocyanin (CisBio) in buffer containing 50 mM EDTA and 0.05% BSA are added and the reaction incubated for one hour in the dark. Time-resolved fluorescence is measured using a LJL-Analyst (Molecular Devices) with an excitation wavelength of 340 nm and an emission wavelength of 665 nm. The final concentration of DMSO is 2%.

[2] = system: human pancreatic MiaPaCa-2 cells; assay: Tumor cell proliferation assay (ATP Lite), MiaPaCa-2; format: cell-based; conditions: MIA PaCa-2, 96 h, 4 days
Protocol: as §1, §2

human MEK1, sequence (Q02750 whole entry): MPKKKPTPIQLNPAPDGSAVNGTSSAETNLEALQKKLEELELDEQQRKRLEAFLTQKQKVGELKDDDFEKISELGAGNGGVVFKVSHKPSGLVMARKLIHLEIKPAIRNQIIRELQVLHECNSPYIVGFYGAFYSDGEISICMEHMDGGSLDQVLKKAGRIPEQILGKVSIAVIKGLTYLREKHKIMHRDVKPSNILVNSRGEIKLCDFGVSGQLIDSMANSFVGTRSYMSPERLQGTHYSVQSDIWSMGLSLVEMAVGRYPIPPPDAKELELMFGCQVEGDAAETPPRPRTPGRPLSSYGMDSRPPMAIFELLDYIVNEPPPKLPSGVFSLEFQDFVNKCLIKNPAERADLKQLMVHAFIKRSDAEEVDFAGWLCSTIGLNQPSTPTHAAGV

## O=C(NNc1ccnc2cc(Cl)ccc12)c1ccncc1Nc1ccc(I)cc1F [Example 56, N′-(7-chloroquinolin-4-yl)-3-[(2-fluoro-4-iodophenyl)amino]-isonicotino-hydrazide]
[1]
  IC50: ≤ 3 µM
Murine colon C26 cells
  IC50: 3 to 10 µM
Human MEK1
  IC50: 1 to 10 µM
[2]
  IC50: 3 to 10 µM

## O=C(NNc1ccccn1)c1ccncc1Nc1ccc(I)cc1F [Example 49, 3-[(2-fluoro-4-iodophenyl)amino]-N′-pyridin-2-ylisonicotino-hydrazide]
[1]
  IC50: ≤ 3 µM
Murine colon C26 cells
  IC50: ≤ 3 µM
Human MEK1
  IC50: < 1 µM
[2]
  IC50: ≤ 3 µM

## O=C(NNc1cc(C(F)(F)F)cc(C(F)(F)F)c1)c1ccncc1Nc1ccc(I)cc1F [Example 101]
[1]
  IC50: ≤ 3 µM
Murine colon C26 cells
  IC50: 3 to 10 µM
Human MEK1
  IC50: < 1 µM
[2]
  IC50: 3 to 10 µM

## COc1ccccc1CCNC(=O)c1ccncc1Nc1ccc(I)cc1F [Example 27, 3-[(2-fluoro-4-iodophenyl)amino]-N-[2-(2-methoxyphenyl)-ethyl]isonicotinamide]
[1]
  IC50: 3 to 10 µM
Murine colon C26 cells
  IC50: 3 to 10 µM
Human MEK1
  IC50: < 1 µM
[2]
  IC50: 3 to 10 µM

## NC(=O)c1cc[n+]([O-])cc1Nc1ccc(I)cc1F [Example 97, 3-(2-Fluoro-4-iodo-phenylamino)-1-oxy-isonicotinamide]
[1]
  IC50: ≤ 3 µM
Murine colon C26 cells
  IC50: ≤ 3 µM
Human MEK1
  IC50: < 1 µM
[2]
  IC50: ≤ 3 µM

## O=C(O)CONC(=O)c1ccncc1Nc1ccc(I)cc1F [Example 92, [({3-[(2-fluoro-4-iodophenyl)amino]isonicotinoyl}amino)oxy]acetic acid]
[1]
  IC50: ≤ 3 µM
Murine colon C26 cells
  IC50: 3 to 10 µM
Human MEK1
  IC50: < 1 µM
[2]
  IC50: 3 to 10 µM

## Cc1cccc(NNC(=O)c2ccncc2Nc2ccc(I)cc2F)c1 [Example 90, 3-[(2-fluoro-4-iodophenyl)amino]-N′-(3-methylphenyl)isonicotino-hydrazide]
[1]
  IC50: ≤ 3 µM
Murine colon C26 cells
  IC50: ≤ 3 µM
Human MEK1
  IC50: < 1 µM
[2]
  IC50: ≤ 3 µM

## O=C(NCCOc1ccccc1)c1ccncc1Nc1ccc(I)cc1F [Example 26, 3-[(2-fluoro-4-iodophenyl)amino]-N-(2-phenoxyethyl)-isonicotinamide]
[1]
  IC50: ≤ 3 µM
Murine colon C26 cells
  IC50: 3 to 10 µM
Human MEK1
  IC50: < 1 µM
[2]
  IC50: 3 to 10 µM

## O=C(NOC[C@H](O)CO)c1ccncc1Nc1ccc(I)cc1Cl [Example 8, 3-[(2-chloro-4-iodophenyl)amino]-N-{[(2R)-2,3-dihydroxypropyl]oxy}-isonicotinamide]
[1]
  IC50: ≤ 3 µM
Murine colon C26 cells
  IC50: ≤ 3 µM
Human MEK1
  IC50: < 1 µM
[2]
  IC50: ≤ 3 µM

## CCOC(CNC(=O)c1ccncc1Nc1ccc(I)cc1F)OCC [Example 98, N-(2,2-diethoxyethyl)-3-[(2-fluoro-4-iodophenyl)amino]-isonicotinamide]
[1]
  IC50: ≤ 3 µM
Murine colon C26 cells
  IC50: 3 to 10 µM
Human MEK1
  IC50: < 1 µM
[2]
  IC50: 3 to 10 µM

## C[C@H](O)CNC(=O)c1ccncc1Nc1ccc(I)cc1F [Example 41, 3-[(2-fluoro-4-iodophenyl)amino]-N-[(2S)-2-hydroxypropyl]-isonicotinamide]
[1]
  IC50: ≤ 3 µM
Murine colon C26 cells
  IC50: ≤ 3 µM
Human MEK1
  IC50: < 1 µM
[2]
  IC50: ≤ 3 µM

## NC(=O)c1cc(Br)ncc1Nc1ccc(I)cc1F [Example 68, 2-Bromo-5-(2-fluoro-4-iodo-phenylamino)-isonicotinamide]
[1]
  IC50: ≤ 3 µM
Murine colon C26 cells
  IC50: ≤ 3 µM
Human MEK1
  IC50: < 1 µM
[2]
  IC50: ≤ 3 µM

## O=C(NOC[C@@H](O)CO)c1ccncc1Nc1ccc(I)cc1F [Example 75, N-{[(2S)-2,3-dihydroxypropyl]oxy}-3-[(2-fluoro-4-iodophenyl)-amino]isonicotin-amide]
[1]
  IC50: ≤ 3 µM
Murine colon C26 cells
  IC50: ≤ 3 µM
Human MEK1
  IC50: < 1 µM
[2]
  IC50: ≤ 3 µM

## O=C(NOC1CCCCO1)c1ccncc1Nc1ccc(I)cc1F (centres unmarked) [Example 84, 3-[(2-fluoro-4-iodophenyl)amino]-N-(tetrahydro-2H-pyran-2-yloxy)-isonicotin-amide]
[1]
  IC50: ≤ 3 µM
Murine colon C26 cells
  IC50: 3 to 10 µM
Human MEK1
  IC50: < 1 µM

## COC(=O)c1ccncc1Nc1ccc(I)cc1Cl [Example 10, Methyl 3-[(2-chloro-4-iodophenyl)amino]isonicotinate]
[1]
  IC50: ≤ 3 µM
Murine colon C26 cells
  IC50: 3 to 10 µM
Human MEK1
  IC50: < 1 µM
[2]
  IC50: ≤ 3 µM

## CC(C)CONC(=O)c1ccncc1Nc1ccc(I)cc1Cl [Example 78]
[1]
  IC50: ≤ 3 µM
Murine colon C26 cells
  IC50: 3 to 10 µM
Human MEK1
  IC50: < 1 µM

## O=C(NOCc1ccccc1)c1ccncc1Nc1ccc(I)cc1F [Example 91, N-(benzyloxy)-3-[(2-fluoro-4-iodophenyl)amino]isonicotinamide]
[1]
  IC50: ≤ 3 µM
Murine colon C26 cells
  IC50: 3 to 10 µM
Human MEK1
  IC50: < 1 µM
[2]
  IC50: 3 to 10 µM

## O=C(NCCCn1ccnc1)c1cc(Br)ncc1Nc1ccc(I)cc1F [Example 72, 2-Bromo-5-(2-fluoro-4-iodo-phenylamino)-N-(3-imidazol-1-yl-propyl)-isonicotinamide]
[1]
  IC50: ≤ 3 µM
Murine colon C26 cells
  IC50: 3 to 10 µM
Human MEK1
  IC50: < 1 µM
[2]
  IC50: 3 to 10 µM

## COCCNC(=O)c1cc(Br)ncc1Nc1ccc(I)cc1F [Example 87, 2-Bromo-5-(2-fluoro-4-iodo-phenylamino)-N-(2-methoxy-ethyl)-isonicotinamide]
[1]
  IC50: ≤ 3 µM
Human MEK1
  IC50: < 1 µM
[2]
  IC50: 3 to 10 µM

## O=C(c1ccncc1Nc1ccc(I)cc1F)N1CCOCC1 [Example 17, [3-(2-Fluoro-4-iodo-phenylamino)-pyridin-4-yl]-morpholin-4-yl-methanone]
[1]
  IC50: ≤ 3 µM
Murine colon C26 cells
  IC50: ≤ 3 µM
Human MEK1
  IC50: < 1 µM
[2]
  IC50: ≤ 3 µM

## CC(C)(C)ONC(=O)c1ccncc1Nc1ccc(I)cc1Cl [Example 65]
[1]
  IC50: ≤ 3 µM
Murine colon C26 cells
  IC50: 3 to 10 µM
Human MEK1
  IC50: < 1 µM
[2]
  IC50: 3 to 10 µM

## O=C(NCc1ccccn1)c1ccncc1Nc1ccc(I)cc1F [Example 40, 3-[(2-fluoro-4-iodophenyl)amino]-N-(pyridin-2-ylmethyl)-isonicotinamide]
[1]
  IC50: ≤ 3 µM
Murine colon C26 cells
  IC50: 3 to 10 µM
Human MEK1
  IC50: < 1 µM
[2]
  IC50: 3 to 10 µM

## O=C(NCCCCCO)c1ccncc1Nc1ccc(I)cc1Cl [Example 36, 3-(2-Chloro-4-iodo-phenylamino)-N-(5-hydroxy-pentyl)-isonicotinamide]
[1]
  IC50: ≤ 3 µM
Murine colon C26 cells
  IC50: ≤ 3 µM
Human MEK1
  IC50: < 1 µM
[2]
  IC50: ≤ 3 µM

## O=C(NCCN1CCCCC1)c1ccncc1Nc1ccc(I)cc1F [Example 33, 3-[(2-fluoro-4-iodophenyl)amino]-N-(2-piperidin-1-ylethyl)-isonicotinamide]
[1]
  IC50: ≤ 3 µM
Murine colon C26 cells
  IC50: ≤ 3 µM
Human MEK1
  IC50: < 1 µM
[2]
  IC50: ≤ 3 µM

## O=C(NCCCCl)c1ccncc1Nc1ccc(I)cc1F [Example 79, N-(3-chloropropyl)-3-[(2-fluoro-4-iodophenyl)-amino]isonicotinamide]
[1]
  IC50: ≤ 3 µM
Murine colon C26 cells
  IC50: ≤ 3 µM
Human MEK1
  IC50: < 1 µM
[2]
  IC50: ≤ 3 µM

## O=C(NN1CCCCCC1)c1ccncc1Nc1ccc(I)cc1F [Example 42, N-azepan-1-yl-3-[(2-fluoro-4-iodophenyl)amino]isonicotinamide]
[1]
  IC50: ≤ 3 µM
Murine colon C26 cells
  IC50: 3 to 10 µM
Human MEK1
  IC50: < 1 µM
[2]
  IC50: 3 to 10 µM

## O=C(NCCO)c1cc(Br)ncc1Nc1ccc(I)cc1F [Example 74, 2-Bromo-5-(2-fluoro-4-iodo-phenylamino)-N-(2-hydroxy-ethyl)-isonicotinamide]
[1]
  IC50: ≤ 3 µM
Murine colon C26 cells
  IC50: 3 to 10 µM
Human MEK1
  IC50: < 1 µM
[2]
  IC50: 3 to 10 µM

## O=C(NC1CC1)c1ccncc1Nc1ccc(I)cc1F [Example 47, N-cyclopropyl-3-[(2-fluoro-4-iodophenyl)amino]isonicotinamide]
[1]
  IC50: ≤ 3 µM
Murine colon C26 cells
  IC50: ≤ 3 µM
Human MEK1
  IC50: < 1 µM
[2]
  IC50: ≤ 3 µM

## O=C(NCCO)c1ccncc1Nc1ccc(I)cc1F [Example 15, 3-(2-Fluoro-4-iodo-phenylamino)-N-(2-hydroxy-ethyl)-isonicotinamide]
[1]
  IC50: ≤ 3 µM
Murine colon C26 cells
  IC50: ≤ 3 µM
Human MEK1
  IC50: < 1 µM
[2]
  IC50: ≤ 3 µM

## CC(C)C(C)NC(=O)c1ccncc1Nc1ccc(I)cc1F (centres unmarked) [Example 62, N-(1,2-dimethylpropyl)-3-[(2-fluoro-4-iodophenyl)amino]-isonicotinamide]
[1]
  IC50: ≤ 3 µM
Murine colon C26 cells
  IC50: 3 to 10 µM
Human MEK1
  IC50: < 1 µM

## CC1(C)OC[C@H](CONC(=O)c2cc(Br)ncc2Nc2ccc(I)cc2F)O1 [Example 69, 2-bromo-N-{[(4R)-2,2-dimethyl-1,3-dioxolan-4-yl]methoxy}-5-[(2-fluoro-4-iodophenyl)amino]isonicotinamide]
[1]
  IC50: ≤ 3 µM
Murine colon C26 cells
  IC50: 3 to 10 µM
Human MEK1
  IC50: < 1 µM

## CONC(=O)c1ccncc1Nc1ccc(I)cc1Cl [Example 80, N-methoxy-3-(2-chloro-4-iodo-phenylamino)-isonicotinamide]
[1]
  IC50: ≤ 3 µM
Human MEK1
  IC50: < 1 µM
[2]
  IC50: 3 to 10 µM
